IC50 data for 14 compounds are collected here from patent US9156788B2, “TRPV3 modulators” (AbbVie Inc., priority 2010, dated 2015).

The assay has as its target T1, human TRPV3 (Homo sapiens, UniProt Q8NET8).
T1 construct: expressed in transfected cells
T1 sequence (Q8NET8 1-790): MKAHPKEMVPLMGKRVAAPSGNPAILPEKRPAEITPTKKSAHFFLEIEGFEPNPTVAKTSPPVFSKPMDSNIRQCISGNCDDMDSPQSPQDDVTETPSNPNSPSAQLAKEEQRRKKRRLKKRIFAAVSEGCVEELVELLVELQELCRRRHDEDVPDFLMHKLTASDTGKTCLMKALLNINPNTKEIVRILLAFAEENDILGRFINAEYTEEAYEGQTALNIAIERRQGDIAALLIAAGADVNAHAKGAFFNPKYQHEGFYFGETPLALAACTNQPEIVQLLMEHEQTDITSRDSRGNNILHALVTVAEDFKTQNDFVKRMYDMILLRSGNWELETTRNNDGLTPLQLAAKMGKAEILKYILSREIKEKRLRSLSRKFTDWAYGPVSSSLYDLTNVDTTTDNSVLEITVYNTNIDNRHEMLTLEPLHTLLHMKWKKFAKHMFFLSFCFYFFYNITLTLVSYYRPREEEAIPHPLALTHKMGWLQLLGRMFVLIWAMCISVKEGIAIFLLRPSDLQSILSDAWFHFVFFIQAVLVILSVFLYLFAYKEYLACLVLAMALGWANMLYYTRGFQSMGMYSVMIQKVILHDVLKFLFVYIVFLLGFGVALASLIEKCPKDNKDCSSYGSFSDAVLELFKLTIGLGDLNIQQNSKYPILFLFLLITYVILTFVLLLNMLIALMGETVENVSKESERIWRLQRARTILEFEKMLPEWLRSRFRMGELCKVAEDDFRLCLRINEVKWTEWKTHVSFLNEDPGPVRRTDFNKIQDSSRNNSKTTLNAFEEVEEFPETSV
The assay is described as follows: Calcium flux assay (FLIPR TETRA), inhibition of 2-APB response. The assay is classed as cell-based. The settings on record: recombinant HEK293 cells stably expressing human TRPV3; 2-APB at its EC50. The protocol: (i) In Vitro Methods-Calcium Flux Assays:
Experiments were conducted using the FLIPR^TETRA®. On the day prior to the experiment, recombinant HEK293 cells that stably express human and mouse TRPV3 were removed from tissue culture flasks and plated in growth medium at 20,000 cells/well into black-walled clear-bottom 384-well Biocoat™ poly-D-lysine assay plates (BD Biosciences, Bedford, Mass.) using a Multidrop® dispenser (ThermoScientific, Waltham, Mass.). On the day of the experiment, growth medium was removed, and the no-wash FLIPR® Calcium-4 dye (λEX=470-495 nm, λEM=515-575 nm; Molecular Devices, Sunnyvale, Calif.) was added to each well using the Multidrop® dispenser. Cells were incubated for 90-120 minutes in the dark. Compounds were dissolved in DMSO to prepare a 10 mM stock solution. The intensity of the fluorescence was captured and digitally transferred to an interfaced PC. The peak increase in fluorescence over baseline (relative fluorescence units) was calculated and expressed as the percentage of the maximal 2-APB (2-aminoethoxyldiphenyl borate) response (in the absence of compound).
A general note: Calcium assays in cells follow changes in intracellular calcium, usually with a dye or a luminescent sensor.
The term IC50 denotes the concentration needed to halve the response being measured. Regarding `OC(c1ccccn1)C1(c2cc(F)cc(C(F)(F)F)c2)CCC1` (centres unmarked) [Example 14, {1-[3-fluoro-5-(trifluoromethyl)phenyl]cyclobutyl}(pyridin-2-yl)methanol], the IC50 was in the range of 5.1 to 20 µM.

Consider `CS(=O)(=O)c1ccc(C2(C(O)c3ccccn3)CCC2)cc1` (centres unmarked) [Example 16, {1-[4-(methylsulfonyl)phenyl]cyclobutyl}(pyridin-2-yl)methanol], for which the IC50 fell in the range of 5.1 to 20 µM.

For `OC(c1ccccn1)C1(c2ccc(C(F)(F)F)c(F)c2)CCC1` (centres unmarked) [Example 17, {1-[3-fluoro-4-(trifluoromethyl)phenyl]cyclobutyl}(pyridin-2-yl)methanol], the IC50 was in the range of 1.1 to 5 µM.

For `OC(c1ccccn1)C1(c2ccccn2)CCC1` (centres unmarked) [Example 19, pyridin-2-yl(1-pyridin-2-ylcyclobutyl)methanol], the half-maximal inhibitory concentration (IC50) fell in the range of 5.1 to 20 µM.

Consider `OC(c1ccccn1)C1(c2cccnc2)CCC1` (centres unmarked) [Example 20, pyridin-2-yl(1-pyridin-3-ylcyclobutyl)methanol], for which the IC50 fell in the range of 5.1 to 20 µM.

With `OC(c1ccccn1)C1(c2ccncc2)CCC1` (centres unmarked) [Example 21, pyridin-2-yl(1-pyridin-4-ylcyclobutyl)methanol], the IC50 was 5.1 to 20 µM.

Take `OC(c1ccccn1)C1(c2ccc(-c3ccccc3)cc2)CCC1` (centres unmarked) [Example 22, [1-(1,1′-biphenyl-4-yl)cyclobutyl](pyridin-2-yl)methanol]: the IC50 lay within 5.1 to 20 µM.

Regarding `O[C@H](c1ccccn1)C1(c2ccc(C(F)(F)F)cc2F)CCC1` [Example 27, (S)-{1-[2-fluoro-4-(trifluoromethyl)phenyl]cyclobutyl}(pyridin-2-yl)methanol], the IC50 was 0.501 to 1 µM.

Turning to `OC(c1ncccn1)C1(c2ccccc2F)CCC1` (centres unmarked) [Example 32, [1-(2-fluorophenyl)cyclobutyl](pyrimidin-2-yl)methanol], the IC50 lay within 5.1 to 20 µM.

Take `OC(c1ncccn1)C1(c2ccc(F)cc2)CCC1` (centres unmarked) [Example 34, [1-(4-fluorophenyl)cyclobutyl](pyrimidin-2-yl)methanol]: the IC50 was in the range of 5.1 to 20 µM.

Consider `O[C@H](c1ncccn1)C1(c2ccc(C(F)(F)F)cc2)CCC1` [Example 41, (S)-pyrimidin-2-yl{1-[4-(trifluoromethyl)phenyl]cyclobutyl}methanol], for which the 50% inhibitory concentration (IC50) lay in the range of 5.1 to 20 µM.

Consider `O[C@@H](c1ncccn1)C1(c2ccc(C(F)(F)F)cc2)CCC1` [Example 42, (R)-pyrimidin-2-yl{1-[4-(trifluoromethyl)phenyl]cyclobutyl}methanol], for which the IC50 is 1.1 to 5 µM.

Turning to `CC(c1cccc(C(F)(F)F)c1)C1(C(O)c2ccccn2)CCC1` (centres unmarked) [Example 54, pyridin-2-yl(1-{1-[3-(trifluoromethyl)phenyl]ethyl}cyclobutyl)methanol], the IC50 fell in the range of 5.1 to 20 µM.

For the compound “[1-(4-methylbenzyl)cyclobutyl](pyridin-2-yl)methanol [Example 52]”, the IC50 was in the range of 1.1 to 5 µM.
